We go through six compounds from PubChem BioAssay AID2060513 (Molecular Pharmacology Branch, DTP, NCI, 2025).

“And” between values parts separate entries of the source, which are not always exact repeats. Equal entries are not always repeated.

This test deals with 299254-011-R-J1-PDC complex spheroids viability. The experiment in a line: Anticancer human tumor 299254-011-R-J1-PDC patient-derived melanoma cell line growth inhibition [GQUAD]. The following applies: for viability, T/C: stronger effect = lower value. The text has this:
DNA G-quadruplex Stabilizer Agents in Combinations in Complex Spheroids
A high-throughput screen of multi-cell type tumor spheroids was designed to identify active combinations of DNA G-quadruplex stabilizer agents and targeted small molecules. Complex spheroids include a stromal component modeled by human endothelial cells (HUVEC) and fibroblasts modeled by human mesenchymal stem cells (MSCs). The concentration ranges selected for each drug and investigational agent were based upon clinically achievable concentrations if the clinical Cmax of the agent was known.
Compounds. The drugs and investigational agents: pidnarulex (CX-5461; NSC782164), APTO-253 (NSC789042), BRACO-19 (NSC847499), peposertib (NSC802822), ceralasertib (NSC780249), elimusertib (NSC800525), camonsertib (NSC841442), AZD-1390 (NSC803789), olaparib (NSC753686), talazoparib (NSC767125), ART-558 (NSC835418), sotorasib (NSC818433), MRTX-1133 (NSC836407), SN-38 (NSC673596), topotecan (NSC609699), etoposide (NSC141540), doxorubicin (NSC123127), gemcitabine (NSC613327), 5-fluorouracil (NSC19893), paclitaxel (NSC125973), vemurafenib (NSC761431), panobinostat (NSC761190), R-306465 (JNJ-16241199; NSC773264), adavosertib (NSC754352), TP-3654 (NSC805149), carboplatin (NSC241240), KSQ-4279 (NSC840948), and staurosporine (NSC755774) were obtained from the National Cancer Institute (NCI) Developmental Therapeutics Program Chemical Repository (34). The FDA-approved anticancer drug set is available from the NCI Developmental Therapeutics Program. […] The stock solutions were prepared in dimethyl sulfoxide (DMSO, Sigma-Aldrich, St. Louis, MO, cat. D2650) at 800-fold the tested concentration and stored at -70 degrees C prior to their use. All drugs and investigational agents were tested over a range starting from a high concentration at or near the clinical Cmax and decreasing in half-log increments. If the clinical Cmax for an agent had not been determined, the highest concentration tested was 10 microM.
2.3 Cell Culture. All cells were maintained in an incubator at 37 degrees C and 5% CO2 with 95% humidity. The PDC lines were cultured according to standard operating procedures established by the NCI PDMR. All PDCs were thawed and cultured in Matrigel-coated flasks prepared with a working solution of 1X Ham's F-12 nutrient mix, without supplementation (Invitrogen, cat. 11765054), 100 U/mL penicillin-streptomycin (Invitrogen, cat. 15140122), and 2.5% Matrigel (Corning Inc., cat. 354248) for the first three passages. The 857933-349-R-J2-PDC line was cultured in 6C/Colon 1B media, which includes advanced DMEM/F-12 (Thermo Fisher Scientific, cat. 12634028), 10 mM HEPES (Thermo Fisher Scientific, cat. 15630080), 1X GlutaMAX supplement (Thermo Fisher Scientific, cat. 35050061), 0.1 mg/mL primocin (InvivoGen, cat. ant-pm-2), 10% defined fetal bovine serum, heat inactivated (HyClone Laboratories Inc., cat. SH30070.03HI), 50% L-WRN conditioned media (ATCC, cat. CRL-3276), 1.25 mM N-Acetyl-L-cysteine (Sigma-Aldrich, cat. A9165), 10 mM nicotinamide (Sigma-Aldrich, cat. N0636), 1X B-27 supplement (Thermo Fisher Scientific, cat. 17504044), 1X N-2 supplement (Thermo Fisher Scientific, cat. 17502048), 10 microM Y-27632 dihydrochloride (Tocris Bioscience, cat. 1254), and 50 ng/mL human EGF recombinant protein (Thermo Fisher Scientific, cat. PHG0311). The 485176-168-R4-J1-PDC line was cultured in Panc media, which includes all 6C/Colon 1B media components plus 100 ng/mL human FGF-10 (Thermo Fisher Scientific, cat. 100-26), 500 nM SB-431542 (Selleckchem, cat. S1067), and gastrin (Tocris, cat. 3006).
[…]

Setting [1] is: curve of first compound, second compound 0.0316 µM.
The mark [2] stands for this setting: curve of first compound, second compound 0.1 µM.
The mark [3] stands for this setting: curve of first compound, second compound 0.316 µM.
Where [4] appears, read: curve of first compound, second compound 1 µM.
The mark [5] stands for this setting: curve of first compound, second compound 3.16 µM.
Setting [6] is: curve of first compound, second compound 10 µM.
Where [7] appears, read: second compound 0.0316 µM, first compound 0.0316 µM.
Where [8] appears, read: second compound 0.0316 µM, first compound 0.1 µM.
[9] abbreviates: second compound 0.0316 µM, first compound 0.316 µM.
The mark [10] stands for this setting: second compound 0.0316 µM, first compound 1 µM.
Where [11] appears, read: second compound 0.0316 µM, first compound 3.16 µM.
Where [12] appears, read: second compound 0.0316 µM, first compound 10 µM.
Setting [13] is: second compound 0.1 µM, first compound 0.0316 µM.
Setting [14] is: second compound 0.1 µM, first compound 0.1 µM.
[15] abbreviates: second compound 0.1 µM, first compound 0.316 µM.
The mark [16] stands for this setting: second compound 0.1 µM, first compound 1 µM.
Setting [17] is: second compound 0.1 µM, first compound 3.16 µM.
[18] abbreviates: second compound 0.1 µM, first compound 10 µM.
The mark [19] stands for this setting: second compound 0.316 µM, first compound 0.0316 µM.
Setting [20] is: second compound 0.316 µM, first compound 0.1 µM.
Where [21] appears, read: second compound 0.316 µM, first compound 0.316 µM.
Where [22] appears, read: second compound 0.316 µM, first compound 1 µM.
Where [23] appears, read: second compound 0.316 µM, first compound 3.16 µM.
[24] abbreviates: second compound 0.316 µM, first compound 10 µM.
Where [25] appears, read: second compound 1 µM, first compound 0.0316 µM.
Where [26] appears, read: second compound 1 µM, first compound 0.1 µM.
Setting [27] is: second compound 1 µM, first compound 0.316 µM.
Where [28] appears, read: second compound 1 µM, first compound 1 µM.
Setting [29] is: second compound 1 µM, first compound 3.16 µM.
Where [30] appears, read: second compound 1 µM, first compound 10 µM.
Setting [31] is: second compound 3.16 µM, first compound 0.0316 µM.
[32] abbreviates: second compound 3.16 µM, first compound 0.1 µM.
The mark [33] stands for this setting: second compound 3.16 µM, first compound 0.316 µM.
The mark [34] stands for this setting: second compound 3.16 µM, first compound 1 µM.
The mark [35] stands for this setting: second compound 3.16 µM, first compound 3.16 µM.
Where [36] appears, read: second compound 3.16 µM, first compound 10 µM.
Where [37] appears, read: second compound 10 µM, first compound 0.0316 µM.
Setting [38] is: second compound 10 µM, first compound 0.1 µM.
The mark [39] stands for this setting: second compound 10 µM, first compound 0.316 µM.
Where [40] appears, read: second compound 10 µM, first compound 1 µM.
The mark [41] stands for this setting: second compound 10 µM, first compound 3.16 µM.
Setting [42] is: second compound 10 µM, first compound 10 µM.

What is called IC50 is the concentration that gives 50% inhibition. The viability, T/C is the result in the treated group divided by that in the control group, in per cent.
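Further: spheroids exposed to the agents for seven days before readout.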
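Wherever viability, T/C is given: percent viability relative to DMSO vehicle control wells = 100%.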

Consider `COc1ccc([C@@H](O)c2cc(-c3ncnc4cc(N5CCOCC5)ccc34)c(F)cc2Cl)nn1` + Cc1cnc(CNC(=O)c2c(=O)c3ccc(N4CCCN(C)CC4)nc3n3c2sc2ccccc23)cn1, for which the IC50 under setting [1] was 7.51 µM; the IC50 under setting [2] was 6.85 µM; the IC50 under setting [3] was found to be 3.15 µM; the IC50 under setting [4] is 2.79 µM; the IC50 under setting [5] was 2.71 µM; the IC50 under setting [6] was less than 0.0316 µM. Further, the viability, T/C by setting is: under setting [7], 75.6%; under setting [8], 87.8%; under setting [9], 83.6%; under setting [10], 82%; under setting [11], 83.4%; under setting [12], 39.2%. Moreover, the viability, T/C under setting [13] is 86.4%; the viability, T/C under setting [14] is 82.5%; the viability, T/C under setting [15] was 109%; the viability, T/C under setting [16] was 88.2%; the viability, T/C under setting [17] is 78.1%; the viability, T/C under setting [18] was 36%. The viability, T/C runs as follows: under setting [19], 84%; under setting [20], 87.4%; under setting [21], 86.6%; under setting [22], 68.1%; under setting [23], 51.6%; under setting [24], 32.4%. Also, the viability, T/C under setting [25] was 81.5%; the viability, T/C under setting [26] was 76.6%; the viability, T/C under setting [27] was 73%; the viability, T/C under setting [28] is 80%; the viability, T/C under setting [29] is 46.6%; the viability, T/C under setting [30] is 26.7%. Besides, the viability, T/C was 67.2% under setting [31]; 63.1% under setting [32]; 57.2% under setting [33]; 62.8% under setting [34]; 47.7% under setting [35]; 23.2% under setting [36]. Also, the viability, T/C was 0.4% under setting [37]; 24.3% under setting [38]; 45.3% under setting [39]; 21.1% under setting [40]; 0.32% under setting [41]; 0.26% under setting [42].
For `C#Cc1c(F)ccc2cc(O)cc(-c3ncc4c(N5CC6CCC(C5)N6)nc(OCC56CCCN5CC(F)C6)nc4c3F)c12` (configuration not stated) + Cc1cnc(CNC(=O)c2c(=O)c3ccc(N4CCCN(C)CC4)nc3n3c2sc2ccccc23)cn1, the IC50 was greater than 10 µM under setting [1]; greater than 10 µM under setting [2]; greater than 10 µM under setting [3]; greater than 10 µM under setting [4]; greater than 10 µM under setting [5]; less than 0.0316 µM under setting [6]. Moreover, the viability, T/C runs as follows: under setting [7], 108%; under setting [8], 87.8%; under setting [9], 102%; under setting [10], 93%; under setting [11], 96.2%; under setting [12], 79.8%. The viability, T/C by setting is: under setting [13], 123%; under setting [14], 99.2%; under setting [15], 122%; under setting [16], 91.7%; under setting [17], 103%; under setting [18], 80.5%. Besides, the viability, T/C under setting [19] was 113%; the viability, T/C under setting [20] is 115%; the viability, T/C under setting [21] was 117%; the viability, T/C under setting [22] is 87.1%; the viability, T/C under setting [23] was 91.1%; the viability, T/C under setting [24] was 74.1%. Further, the viability, T/C is 81% under setting [25]; 105% under setting [26]; 94.4% under setting [27]; 102% under setting [28]; 83.1% under setting [29]; 85.6% under setting [30]. Further, the viability, T/C was 74.8% under setting [31]; 103% under setting [32]; 99.8% under setting [33]; 85.8% under setting [34]; 83.4% under setting [35]; 88.6% under setting [36]. Further, the viability, T/C is, setting by setting: under setting [37], 50.6%; under setting [38], 18.7%; under setting [39], 43.6%; under setting [40], 33.4%; under setting [41], 51.3%; under setting [42], 0.39%.
For the compound `CC[C@@]1(O)C(=O)OCc2c1cc1n(c2=O)Cc2cc3c(CN(C)C)c(O)ccc3nc2-1`, the viability, T/C was 91.8% and 98.4% and 103% (compound 0.000999 µM); 94% and 117% and 106% (compound 0.00316 µM); 93.8% and 93.5% and 91.8% (compound 0.00999 µM); 85.7% and 102% and 117% (compound 0.0316 µM); 80.3% and 103% and 96.4% (compound 0.0999 µM); 97.9% and 88% and 91.1% (compound 0.316 µM). The IC50 (curve of compound) was greater than 0.316 µM.
`C=CC(=O)N1CCN(c2nc(=O)n(-c3c(C)ccnc3C(C)C)c3nc(-c4c(O)cccc4F)c(F)cc23)C(C)C1` (configuration not stated): the viability, T/C is 79% and 95.8% and 88.2% (compound 0.0316 µM); 57.3% and 82.7% and 63.5% (compound 0.1 µM); 81% and 65.1% and 59% (compound 0.316 µM); 59.5% and 59.8% and 59% (compound 1 µM); 60.7% and 61% and 69.7% (compound 3.16 µM); 68.5% and 69.6% and 66.1% (compound 10 µM). For the setting “curve of compound”, the IC50 is greater than 10 µM.
For `C#Cc1c(F)ccc2cc(O)cc(-c3ncc4c(N5CC6CCC(C5)N6)nc(OCC56CCCN5CC(F)C6)nc4c3F)c12` (configuration not stated), the viability, T/C is 117% and 84.2% and 84% (compound 0.0316 µM); 109% and 86.1% and 98.1% (compound 0.1 µM); 90.8% and 85.1% and 95.8% (compound 0.316 µM); 118% and 83.9% and 81% (compound 1 µM); 86.5% and 93.7% and 84.6% (compound 3.16 µM); 82.7% and 72.7% and 67.4% (compound 10 µM). Also, the IC50 (curve of compound) was greater than 10 µM.
For the compound `CC(C)n1c(=O)n(C)c2cnc3cc(F)c(-c4ccc(OCCCN5CCCCC5)nc4)cc3c21`, the viability, T/C reads like this: (compound 0.0316 µM) 104% and 100% and 97%; (compound 0.1 µM) 87.8% and 78.1% and 79%; (compound 0.316 µM) 102% and 101% and 90.2%; (compound 1 µM) 104% and 76.4% and 83.5%; (compound 3.16 µM) 93% and 75% and 78.9%; (compound 10 µM) 55.8% and 48.2% and 48.6%. In addition, under “curve of compound”, the IC50 is > 10 µM and 9.52 µM and 9.66 µM.
